Assay results: patent publication US10005774B2, “Syk inhibitors” (Gilead Sciences, Inc., priority 2013, dated 2018)

The compounds below were run against Syk (Homo sapiens, UniProt P43405) (assay: High Throughput Syk Biochemical Assay (KinEASE TR-FRET)). Settings: TABLE D, 20 μM ATP, 1 μM biotinylated peptide, 0.015 nM Syk, 30 min at room temperature, read-out: IC50.
Summary of the method: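 Compounds in DMSO dilution series were tested against Syk, which phosphorylates an XL665-tagged peptide. The phosphoproduct was bound by Eu-labelled phosphotyrosine antibody in a two-step endpoint format.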

Compared with `C[C@@H](Oc1nc(-c2ccc(N3CCN(C4COC4)CC3)cc2)cc2ncn(C)c12)[C@H]1CNC(=O)C1` [(R)-4-((R)-1-(3-methyl-6-(4-(4-(oxetan-3-yl)piperazin-1-yl)phenyl)-3H-imidazo[4,5-c]pyridin-4-yloxy)ethyl)pyrrolidin-2-one], `C[C@@H](Oc1nc(-c2ccc(N3CCOCC3)cc2)cc2ncn(C)c12)[C@H]1CNC(=O)C1` [(R)-4-((R)-1-(3-methyl-6-(4-morpholinophenyl)-3H-imidazo[4,5-c]pyridin-4-yloxy)ethyl)pyrrolidin-2-one] is 1.8-fold lower in IC50: 8.21 nM for the first, 4.6 nM for the second. The second is the more potent here.

First: C[C@@H](Oc1nc(-c2ccc3c(c2)N(C)CCO3)cc2ncn(C)c12)[C@H]1CNC(=O)C1 [(R)-4-((R)-1-(3-methyl-6-(4-methyl-3,4-dihydro-2H-benzo[b][1,4]oxazin-6-yl)-3H-imidazo[4,5-c]pyridin-4-yloxy)ethyl)pyrrolidin-2-one]
Second: COc1ccc(-c2cc(O[C@H](C)[C@H]3CNC(=O)C3)c3c(Cl)cnn3c2)cc1OC [(R)-4-((R)-1-((3-chloro-6-(3,4-dimethoxyphenyl)pyrazolo[1,5-a]pyridin-4-yl)oxy)ethyl)pyrrolidin-2-one]
The IC50 of the first is 13-fold higher: 13.5 nM for the first, 1.07 nM for the second.

Same assay, conditions: table 'ALL NEW COMPOUNDS IN 2014', 20 μM ATP, 1 μM biotinylated peptide, 0.015 nM Syk, 30 min at room temperature, read-out: Syk IC50

`CCOc1cc(-c2cc3ncn(C4CC4)c3c(O[C@H](C)[C@H]3CNC(=O)C3)n2)ccc1OC` [(R)-4-((R)-1-((3-cyclopropyl-6-(3-ethoxy-4-methoxyphenyl)-3H-imidazo[4,5-c]pyridin-4-yl)oxy)ethyl)pyrrolidin-2-one] and `COc1cc(-c2cc3ncn(C4CC4)c3c(O[C@H](C)[C@H]3CNC(=O)C3)n2)ccc1OCC(F)F` [(R)-4-((R)-1-((3-cyclopropyl-6-(4-(2,2-difluoroethoxy)-3-methoxyphenyl)-3H-imidazo[4,5-c]pyridin-4-yl)oxy)ethyl)pyrrolidin-2-one] are within 1.5-fold of each other in IC50: 2.92 nM for the first, 2.78 nM for the second.

First: C[C@@H](Oc1nc(-c2ccc(N3CCn4cnnc4C3)cc2)cc2ncn(C3CC3)c12)[C@H]1CNC(=O)C1 [(R)-4-((R)-1-((3-cyclopropyl-6-(4-(5,6-dihydro-[1,2,4]triazolo[4,3-a]pyrazin-7(8H)-yl)phenyl)-3H-imidazo[4,5-c]pyridin-4-yl)oxy)ethyl)pyrrolidin-2-one]
Second: C[C@@H](Oc1nc(-c2ccnc(C3C=NN=C3)c2)cc2ncn(C3CC3)c12)[C@H]1CNC(=O)C1 [(R)-4-((R)-1-((6-(2-(1H-pyrazol-4-yl)pyridin-4-yl)-3-cyclopropyl-3H-imidazo[4,5-c]pyridin-4-yl)oxy)ethyl)pyrrolidin-2-one]
The IC50 of the first is 6.5-fold lower: 1.3 nM for the first, 8.44 nM for the second.

Compound `C[C@@H](Oc1cc(-c2cnccn2)cc2ncn(C3CC3)c12)[C@H]1CNC(=O)C1` [(R)-4-((R)-1-((1-cyclopropyl-5-(pyrazin-2-yl)-1H-benzo[d]imidazol-7-yl)oxy)ethyl)pyrrolidin-2-one] has an IC50 of 66.7 nM.
